These results are taken from ChEMBL document CHEMBL1201862, “PubChem BioAssay data set” (2004).

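Each compound was tested at five concentrations against cells in 96-well plates for 48 hours. GI50: concentration for 50% inhibition of growth.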 Active and inactive are the calls of the source. Cut-off read from the data, not from the text of the source: active = GI50 up to about 1.1 µM and inactive = higher. Square brackets hold non-standard residues; d marks the D form. Peptide text beside a SMILES is read from it. * marks the point of attachment. ξ: configuration not given here. Propanoyl(3-(4-MeO-Ph)) = COc1ccc(CCC(=O)*)cc1; Thr(3ξ) = CC(O)[C@H](N)C(=O)O; dNMeL = CN[C@H](CC(C)C)C(=O)O; ξLac = CC(O)C(=O)O

Some test systems named below: HCC 2998; HCT-15; HL-60; HOP-92; HT-29; MCF7; Malme-3M; NCI-H23; NCI-H522; OVCAR-4; PC-3; SF-268; SF-295; SK-MEL-28; SK-MEL-2; SK-MEL-5; SN12C; SR; UACC-257; UACC-62.
Holding throughout (experiment): NCI tumour cell line growth inhibition, 48 h

As to `COc1ccc(C2N(c3ccc(F)c([N+](=O)[O-])c3)C(=O)N3C(c4ccc(OC)cc4)N(c4ccc(F)c([N+](=O)[O-])c4)C(=O)N23)cc1` (stereo not given), the GI50 is > 100 µM (inactive) in the assay on HCC 2998; greater than 100 µM with HCT-15; > 100 µM (inactive) in the assay on HL-60; 23.1 µM (inactive) in the assay on HOP-92; > 100 µM (inactive) with HT-29; > 100 µM (inactive) in the assay on MCF7. Also, the GI50 in the assay with Malme-3M, in the assay on NCI-H23, in the assay on NCI-H522, with OVCAR-4, in the assay on PC-3 and in the assay on SF-268 was > 100 µM (inactive) each time. The GI50 in the assay with SF-295, with SK-MEL-28, in the assay on SK-MEL-2, with SK-MEL-5, in the assay with SN12C and in the assay with SR was > 100 µM (inactive) throughout. The GI50 with UACC-257 and with UACC-62 was > 100 µM (inactive) in each case.
With `Nc1nc(Cl)cc(NCC2(O)CCC2)n1`, the GI50 in the assay on HCC 2998 was > 100 µM (inactive); in the assay on HCT-15 it was greater than 100 µM; with HL-60, > 100 µM (inactive); in the assay with HOP-92 it was > 100 µM (inactive); in the assay with HT-29 it was > 100 µM (inactive); in the assay with MCF7, > 100 µM (inactive). The GI50 with Malme-3M, with NCI-H23, in the assay with NCI-H522, with OVCAR-4, in the assay on PC-3 and in the assay with SF-268 was > 100 µM (inactive) throughout. The GI50 with SF-295, in the assay on SK-MEL-28, in the assay with SK-MEL-2, in the assay with SK-MEL-5, in the assay with SN12C and in the assay on SR was > 100 µM (inactive) throughout. For the same molecule, the GI50 in the assay with UACC-257 and with UACC-62 was > 100 µM (inactive) each time.
`COc1ccc(\N=C/C=C/C(=C/COC(C)=O)OC(C)=O)cc1`: the GI50 with HCC 2998 is > 100 µM (inactive); in the assay on HCT-15, 36.6 µM; with HL-60, 19.1 µM (inactive); in the assay with HOP-92 it was 20.5 µM (inactive); with HT-29, 23.2 µM (inactive); in the assay on MCF7, 21.7 µM (inactive). Moreover, the GI50 is 31.2 µM (inactive) in the assay on Malme-3M; 16.8 µM (inactive) in the assay with NCI-H23; 6.62 µM (inactive) in the assay with NCI-H522; 27.2 µM (inactive) in the assay with OVCAR-4; 36.4 µM (inactive) in the assay on PC-3; 31 µM (inactive) with SF-268. Also, the GI50 is 58.5 µM (inactive) with SF-295; 26.9 µM (inactive) with SK-MEL-28; 16.7 µM (inactive) in the assay with SK-MEL-2; 29 µM (inactive) in the assay with SK-MEL-5; 32.7 µM (inactive) in the assay on SN12C; 39.4 µM (inactive) with SR. Besides, the GI50 is 27.4 µM (inactive) in the assay with UACC-257 and 37.1 µM (inactive) with UACC-62.
As to `N#Cc1c(-c2ccc(Cl)cc2)cc(-c2ccc(Nc3ccnc4cc(C(F)(F)F)ccc34)cc2)[nH]c1=O`, the GI50 in the assay on HCC 2998 was > 100 µM (inactive); with HCT-15, greater than 100 µM; in the assay on HL-60, 10.8 µM (inactive); in the assay with HOP-92, 17.1 µM (inactive); with HT-29 it was 7.13 µM (inactive); in the assay with MCF7, 4.79 µM (inactive). Moreover, the GI50 is 14.1 µM (inactive) with Malme-3M; > 45 µM (inactive) with NCI-H23; 50 µM (inactive) with NCI-H522; 8.41 µM (inactive) in the assay on OVCAR-4; 69.2 µM (inactive) in the assay on PC-3; > 66.4 µM (inactive) in the assay with SF-268. The GI50 with SF-295 was 36.1 µM (inactive); with SK-MEL-28 it was 8.49 µM (inactive); with SK-MEL-2, 57.4 µM (inactive); with SK-MEL-5, 19.1 µM (inactive); in the assay on SN12C, 59.2 µM (inactive); in the assay on SR, 2.72 µM (inactive). The GI50 is 37.2 µM (inactive) in the assay with UACC-257 and 21.9 µM (inactive) in the assay with UACC-62.
Take `Oc1nc2nc3ccccc3nc2nc1O`: the GI50 in the assay on HCC 2998 was > 100 µM (inactive); with HCT-15 it was greater than 100 µM; in the assay on HL-60, > 100 µM (inactive); in the assay with HOP-92 it was > 100 µM (inactive); in the assay with HT-29, > 100 µM (inactive); in the assay on MCF7, > 100 µM (inactive). Also, the GI50 in the assay with Malme-3M, in the assay on NCI-H23, in the assay on NCI-H522, in the assay with OVCAR-4, in the assay on PC-3 and in the assay on SF-268 was > 100 µM (inactive) each time. For the same molecule, the GI50 in the assay with SF-295, in the assay with SK-MEL-28, in the assay on SK-MEL-2, in the assay on SK-MEL-5, in the assay on SN12C and with SR was > 100 µM (inactive) throughout. Moreover, the GI50 in the assay with UACC-257 and in the assay on UACC-62 was > 100 µM (inactive) in each case.
As for `CC(C)(CN)CN`, the GI50 in the assay with HCC 2998 was > 100 µM (inactive); with HCT-15, greater than 100 µM; in the assay on HL-60 it was > 100 µM (inactive); with HOP-92, > 100 µM (inactive); in the assay on HT-29, > 100 µM (inactive); in the assay on MCF7 it was > 100 µM (inactive). The GI50 with Malme-3M, in the assay on NCI-H23, with NCI-H522, with OVCAR-4, in the assay with PC-3 and with SF-268 was > 100 µM (inactive) in each case. The GI50 in the assay on SF-295, in the assay with SK-MEL-28, in the assay with SK-MEL-2, with SK-MEL-5, in the assay with SN12C and in the assay with SR was > 100 µM (inactive) in each case. Moreover, the GI50 in the assay with UACC-257 and with UACC-62 was > 100 µM (inactive) in each case.
For `COC(=O)[C@@H](NC(=O)[C@@H](CC(C)C)N(C)C(=O)[C@@H]1CCCN1C(=O)C(C)O)C(C)OC(=O)CCc1ccc(OC)cc1` (stereo not given in full) (H-[ξLac]P[dNMeL][Thr(3ξ)](Propanoyl(3-(4-MeO-Ph)))-OMe), the GI50 was > 100 µM (inactive) with HCC 2998; greater than 100 µM with HCT-15; > 100 µM (inactive) in the assay with HL-60; > 100 µM (inactive) in the assay on HOP-92; > 100 µM (inactive) in the assay with HT-29; > 100 µM (inactive) in the assay with MCF7. The GI50 in the assay with Malme-3M, in the assay on NCI-H23, in the assay with NCI-H522, in the assay with OVCAR-4, in the assay with PC-3 and in the assay on SF-268 was > 100 µM (inactive) in each case. Also, the GI50 with SF-295, in the assay on SK-MEL-28, in the assay on SK-MEL-2, with SK-MEL-5, in the assay on SN12C and in the assay on SR was > 100 µM (inactive) throughout. Moreover, the GI50 with UACC-257 and in the assay on UACC-62 was > 100 µM (inactive) each time.
